In ChEMBL document CHEMBL6153110, “Peptide Double-Stapling and Arginine N-Glycosylation Triggered the Development of Therapeutic Antimicrobial Peptides Capable of Killing Drug-Resistant Bacteria in Mice” (J Med Chem, 2025):
Converted amounts (≈) assume the structure as drawn. Positions of bridges follow the written chain, without caps; N, C: chain ends. Non-standard residues stand in square brackets, D forms with d. Residues, ends and D or L forms follow the SMILES beside them. R8 = C=CCCCCCC[C@@](C)(N)C(=O)O; S5 = C=CCCC[C@](C)(N)C(=O)O; Abu = CC[C@H](N)C(=O)O

Key:
Type in all cases: functional
Klebsiella pneumoniae = experiment: Antimicrobial activity against Klebsiella pneumoniae ATCC 13883 assessed as growth inhibition measured after 8 hrs incubation by standard broth dilution assay
Staphylococcus aureus = experiment: Antimicrobial activity against methicillin-resistant Staphylococcus aureus ATCC 43300 assessed as growth inhibition measured after 8 hrs incubation by standard broth dilution assay
Pseudomonas aeruginosa = experiment: Antimicrobial activity against Pseudomonas aeruginosa ATCC 27853 assessed as growth inhibition measured after 8 hrs incubation by standard broth dilution assay
Streptococcus pneumoniae = experiment: Antimicrobial activity against Streptococcus pneumoniae ATCC 49619 assessed as growth inhibition measured after 8 hrs incubation by standard broth dilution assay

Compound | MIC (Klebsiella pneumoniae) | MIC (Staphylococcus aureus) | MIC (Pseudomonas aeruginosa) | MIC (Streptococcus pneumoniae)
CC(=O)N[C@@H](CC(C)C)C(=O)N[C@@H](CCCCN)C(=O)N[C@@H](CCCNC(=N)N)C(=O)N[C@H](C(=O)N[C@]1(C)CCCCCC/C=C\CCC[C@@](C)(C(=O)N[C@@H](CCCCN)C(=O)N[C@@H](CCCNC(=N)N)C(=O)N[C@@H](Cc2ccc(O)cc2)C(=O)N[C@@H](Cc2c[nH]c3ccccc23)C(=O)N[C@@H](CCCNC(=N)N)C(=O)N[C@@H](CCC(N)=O)C(=O)N[C@@H](CC(C)C)C(=O)N[C@@H](CCCCN)C(=O)N[C@@H](CCCCN)C(=O)N2CCC[C@H]2C(=O)N[C@H](C(=O)N[C@@H](CCCNC(=N)N)C(N)=O)C(C)C)NC(=O)[C@H](CC(C)C)NC(=O)[C@H](CCCCN)NC(=O)[C@H](Cc2ccccc2)NC(=O)[C@H](C(C)C)NC(=O)[C@H](CCCNC(=N)N)NC(=O)[C@H](CCCCN)NC1=O)C(C)C (Ac-LKRV[R8]KRVFKL[S5]KRYWRQLKKPVR-NH2; staple (Z) 5-12) | 38 µg/mL (≈ 11.7 µM) | 9.7 µg/mL (≈ 2.98 µM) | 19.3 µg/mL (≈ 5.92 µM) | 9.6 µg/mL (≈ 2.94 µM)
CC(=O)N[C@@H](CC(C)C)C(=O)N[C@@H](CCCCN)C(=O)N[C@@H](CCCNC(=N)N)C(=O)N[C@H](C(=O)N[C@@H](Cc1c[nH]c2ccccc12)C(=O)N[C@@H](CCCCN)C(=O)N[C@@H](CCCNC(=N)N)C(=O)N[C@H](C(=O)N[C@@H](Cc1ccccc1)C(=O)N[C@@H](CCCCN)C(=O)N[C@@H](CC(C)C)C(=O)N[C@@H](CC(C)C)C(=O)N[C@@H](CCCCN)C(=O)N[C@@H](CCCNC(=N)N)C(=O)N[C@@H](Cc1ccc(O)cc1)C(=O)N[C@@]1(C)CCC/C=C\CCC[C@@](C)(C(=O)N[C@@H](CCCCN)C(=O)N2CCC[C@H]2C(=O)N[C@H](C(=O)N[C@@H](CCCNC(=N)N)C(N)=O)C(C)C)NC(=O)[C@H](CC(C)C)NC(=O)[C@H](CCC(N)=O)NC(=O)[C@H](CCCNC(=N)N)NC1=O)C(C)C)C(C)C (Ac-LKRVWKRVFKLLKRY[S5]RQL[S5]KPVR-NH2; staple (Z) 16-20) | 38 µg/mL (≈ 11.9 µM) | 2.5 µg/mL (≈ 0.78 µM) | 5 µg/mL (≈ 1.56 µM) | 19 µg/mL (≈ 5.93 µM)
CC(=O)N[C@@H](CC(C)C)C(=O)N[C@@H](CCCCN)C(=O)N[C@@H](CCCNC(=N)N)C(=O)N[C@@]1(C)CCC/C=C\CCC[C@@](C)(C(=O)N[C@@H](Cc2ccccc2)C(=O)N[C@@H](CCCCN)C(=O)N[C@@H](CC(C)C)C(=O)N[C@@H](CC(C)C)C(=O)N[C@@H](CCCCN)C(=O)N[C@@H](CCCNC(=N)N)C(=O)N[C@@H](Cc2ccc(O)cc2)C(=O)N[C@@H](Cc2c[nH]c3ccccc23)C(=O)N[C@@H](CCCNC(=N)N)C(=O)N[C@@H](CCC(N)=O)C(=O)N[C@@H](CC(C)C)C(=O)N[C@@H](CCCCN)C(=O)N[C@@H](CCCCN)C(=O)N2CCC[C@H]2C(=O)N[C@H](C(=O)N[C@@H](CCCNC(=N)N)C(N)=O)C(C)C)NC(=O)[C@H](CCCNC(=N)N)NC(=O)[C@H](CCCCN)NC(=O)[C@H](Cc2c[nH]c3ccccc23)NC1=O (Ac-LKR[S5]WKR[S5]FKLLKRYWRQLKKPVR-NH2; staple (Z) 4-8) | 38 µg/mL (≈ 11.4 µM) | 2.5 µg/mL (≈ 0.753 µM) | 5 µg/mL (≈ 1.51 µM) | 37.7 µg/mL (≈ 11.4 µM)
CC(=O)N[C@@H](CC(C)C)C(=O)N[C@@H](CCCCN)C(=O)N[C@@H](CCCNC(=N)N)C(=O)N[C@H](C(=O)N[C@@H](Cc1c[nH]c2ccccc12)C(=O)N[C@@H](CCCCN)C(=O)N[C@@H](CCCNC(=N)N)C(=O)N[C@H](C(=O)N[C@@H](Cc1ccccc1)C(=O)N[C@@H](CCCCN)C(=O)N[C@@H](CC(C)C)C(=O)N[C@@H](CC(C)C)C(=O)N[C@@H](CCCCN)C(=O)N[C@@H](CCCNC(=N)N)C(=O)N[C@@H](Cc1ccc(O)cc1)C(=O)N[C@@H](Cc1c[nH]c2ccccc12)C(=O)N[C@@H](CCCNC(=N)N)C(=O)N[C@@]1(C)CCC/C=C\CCC[C@@](C)(C(=O)N[C@H](C(=O)N[C@@H](CCCNC(=N)N)C(N)=O)C(C)C)NC(=O)[C@H](CCCCN)NC(=O)[C@H](CCCCN)NC(=O)[C@H](CC(C)C)NC1=O)C(C)C)C(C)C (Ac-LKRVWKRVFKLLKRYWR[S5]LKK[S5]VR-NH2; staple (Z) 18-22) | 38 µg/mL (≈ 11.5 µM) | 4.9 µg/mL (≈ 1.49 µM) | 9.8 µg/mL (≈ 2.98 µM) | 37.7 µg/mL (≈ 11.5 µM)
CC[C@@H]1NC(=O)[C@H](Cc2ccccc2)NC(=O)[C@H](C(C)C)NC(=O)[C@@](C)(NC(=O)[C@H](CCCCN)NC(=O)[C@H](Cc2c[nH]c3ccccc23)NC(=O)[C@@H](NC(=O)[C@H](CCCNC(=N)N)NC(=O)[C@H](CCCCN)NC(=O)[C@H](CC(C)C)NC(C)=O)C(C)C)CCC/C=C\CCC[C@@](C)(C(=O)N[C@@H](CC(C)C)C(=O)N[C@@H](CCCCN)C(=O)N[C@@H](CCCNC(=N)N)C(=O)N[C@@H](Cc2ccc(O)cc2)C(=O)N[C@@H](Cc2c[nH]c3ccccc23)C(=O)N[C@@H](CCCNC(=N)N)C(=O)N[C@@H](CCC(N)=O)C(=O)N[C@@H](CC(C)C)C(=O)N[C@@H](CCCCN)C(=O)N[C@@H](CCCCN)C(=O)N2CCC[C@H]2C(=O)N[C@H](C(=O)N[C@@H](CCCNC(=N)N)C(N)=O)C(C)C)NC1=O (Ac-LKRVWK[S5]VF[Abu][S5]LKRYWRQLKKPVR-NH2; staple (Z) 7-11) | 4.9 µg/mL (≈ 1.53 µM) | 2.5 µg/mL (≈ 0.78 µM) | 5 µg/mL (≈ 1.56 µM) | 19 µg/mL (≈ 5.93 µM)
CC(=O)N[C@@H](CC(C)C)C(=O)N[C@@H](CCCCN)C(=O)N[C@@H](CCCNC(=N)N)C(=O)N[C@H](C(=O)N[C@@H](Cc1c[nH]c2ccccc12)C(=O)N[C@@H](CCCCN)C(=O)N[C@@H](CCCNC(=N)N)C(=O)N[C@H](C(=O)N[C@@]1(C)CCC/C=C\CCC[C@@](C)(C(=O)N[C@@H](CCCNC(=N)N)C(=O)N[C@@H](Cc2ccc(O)cc2)C(=O)N[C@@H](Cc2c[nH]c3ccccc23)C(=O)N[C@@H](CCCNC(=N)N)C(=O)N[C@@H](CCC(N)=O)C(=O)N[C@@H](CC(C)C)C(=O)N[C@@H](CCCCN)C(=O)N[C@@H](CCCCN)C(=O)N2CCC[C@H]2C(=O)N[C@H](C(=O)N[C@@H](CCCNC(=N)N)C(N)=O)C(C)C)NC(=O)[C@H](CC(C)C)NC(=O)[C@H](CC(C)C)NC(=O)[C@H](CCCCN)NC1=O)C(C)C)C(C)C (Ac-LKRVWKRV[S5]KLL[S5]RYWRQLKKPVR-NH2; staple (Z) 9-13) | 38 µg/mL (≈ 11.7 µM) | 2.5 µg/mL (≈ 0.771 µM) | 5 µg/mL (≈ 1.54 µM) | 9.6 µg/mL (≈ 2.96 µM)
CC(=O)N[C@@H](CC(C)C)C(=O)N[C@@H](CCCCN)C(=O)N[C@@H](CCCNC(=N)N)C(=O)N[C@H](C(=O)N[C@@H](Cc1c[nH]c2ccccc12)C(=O)N[C@@H](CCCCN)C(=O)N[C@@H](CCCNC(=N)N)C(=O)N[C@H](C(=O)N[C@@H](Cc1ccccc1)C(=O)N[C@@H](CCCCN)C(=O)N[C@@H](CC(C)C)C(=O)N[C@@H](CC(C)C)C(=O)N[C@@H](CCCCN)C(=O)N[C@@H](CCCNC(=N)N)C(=O)N[C@]1(C)CCCCCC/C=C\CCC[C@@](C)(C(=O)N[C@H](C(=O)N[C@@H](CCCNC(=N)N)C(N)=O)C(C)C)NC(=O)[C@H](CCCCN)NC(=O)[C@H](CCCCN)NC(=O)[C@H](CC(C)C)NC(=O)[C@H](CCC(N)=O)NC(=O)[C@H](CCCNC(=N)N)NC(=O)[C@H](Cc2c[nH]c3ccccc23)NC1=O)C(C)C)C(C)C (Ac-LKRVWKRVFKLLKR[R8]WRQLKK[S5]VR-NH2; staple (Z) 15-22) | 38 µg/mL (≈ 11.5 µM) | 4.9 µg/mL (≈ 1.49 µM) | 9.9 µg/mL (≈ 3 µM) | 37.7 µg/mL (≈ 11.4 µM)
CC(=O)N[C@@H](CC(C)C)C(=O)N[C@]1(C)CCCCCC/C=C\CCC[C@@](C)(C(=O)N[C@@H](CCCCN)C(=O)N[C@@H](CC(C)C)C(=O)N[C@@H](CC(C)C)C(=O)N[C@@H](CCCCN)C(=O)N[C@@H](CCCNC(=N)N)C(=O)N[C@@H](Cc2ccc(O)cc2)C(=O)N[C@@H](Cc2c[nH]c3ccccc23)C(=O)N[C@@H](CCCNC(=N)N)C(=O)N[C@@H](CCC(N)=O)C(=O)N[C@@H](CC(C)C)C(=O)N[C@@H](CCCCN)C(=O)N[C@@H](CCCCN)C(=O)N2CCC[C@H]2C(=O)N[C@H](C(=O)N[C@@H](CCCNC(=N)N)C(N)=O)C(C)C)NC(=O)[C@H](C(C)C)NC(=O)[C@H](CCCNC(=N)N)NC(=O)[C@H](CCCCN)NC(=O)[C@H](Cc2c[nH]c3ccccc23)NC(=O)[C@H](C(C)C)NC(=O)[C@H](CCCNC(=N)N)NC1=O (Ac-L[R8]RVWKRV[S5]KLLKRYWRQLKKPVR-NH2; staple (Z) 2-9) | 38 µg/mL (≈ 11.6 µM) | 9.7 µg/mL (≈ 2.95 µM) | 9.8 µg/mL (≈ 2.98 µM) | 37.7 µg/mL (≈ 11.5 µM)
CC(=O)N[C@@H](CC(C)C)C(=O)N[C@@H](CCCCN)C(=O)N[C@@H](CCCNC(=N)N)C(=O)N[C@H](C(=O)N[C@@H](Cc1c[nH]c2ccccc12)C(=O)N[C@@H](CCCCN)C(=O)N[C@@H](CCCNC(=N)N)C(=O)N[C@H](C(=O)N[C@@H](Cc1ccccc1)C(=O)N[C@@H](CCCCN)C(=O)N[C@@H](CC(C)C)C(=O)N[C@@H](CC(C)C)C(=O)N[C@@H](CCCCN)C(=O)N[C@@H](CCCNC(=N)N)C(=O)N[C@@]1(C)CCC/C=C\CCC[C@@](C)(C(=O)N[C@@H](CCCCN)C(=O)N[C@@H](CCCCN)C(=O)N2CCC[C@H]2C(=O)N[C@H](C(=O)N[C@@H](CCCNC(=N)N)C(N)=O)C(C)C)NC(=O)[C@H](CCC(N)=O)NC(=O)[C@H](CCCNC(=N)N)NC(=O)[C@H](Cc2c[nH]c3ccccc23)NC1=O)C(C)C)C(C)C (Ac-LKRVWKRVFKLLKR[S5]WRQ[S5]KKPVR-NH2; staple (Z) 15-19) | 38 µg/mL (≈ 11.7 µM) | 19.1 µg/mL (≈ 5.89 µM) | 9.9 µg/mL (≈ 3.05 µM) | 37.7 µg/mL (≈ 11.6 µM)
CC(=O)N[C@]1(C)CCCCCC/C=C\CCC[C@@](C)(C(=O)N[C@@H](Cc2ccccc2)C(=O)N[C@@H](CCCCN)C(=O)N[C@@H](CC(C)C)C(=O)N[C@@H](CC(C)C)C(=O)N[C@@H](CCCCN)C(=O)N[C@@H](CCCNC(=N)N)C(=O)N[C@@H](Cc2ccc(O)cc2)C(=O)N[C@@H](Cc2c[nH]c3ccccc23)C(=O)N[C@@H](CCCNC(=N)N)C(=O)N[C@@H](CCC(N)=O)C(=O)N[C@@H](CC(C)C)C(=O)N[C@@H](CCCCN)C(=O)N[C@@H](CCCCN)C(=O)N2CCC[C@H]2C(=O)N[C@H](C(=O)N[C@@H](CCCNC(=N)N)C(N)=O)C(C)C)NC(=O)[C@H](CCCNC(=N)N)NC(=O)[C@H](CCCCN)NC(=O)[C@H](Cc2c[nH]c3ccccc23)NC(=O)[C@H](C(C)C)NC(=O)[C@H](CCCNC(=N)N)NC(=O)[C@H](CCCCN)NC1=O (Ac-[R8]KRVWKR[S5]FKLLKRYWRQLKKPVR-NH2; staple (Z) 1-8) | 38 µg/mL (≈ 11.4 µM) | 4.9 µg/mL (≈ 1.46 µM) | 9.8 µg/mL (≈ 2.93 µM) | 9.6 µg/mL (≈ 2.87 µM)
